According to patent publication US7910568B2, “Derivatives of 4- or 5-aminosalicylic acid” (Antibe Therapeutics Inc., priority 2005, dated 2011):

System: TNBS-induced colitis
Assay: TNBS-induced colitis in mice, disease activity score
Format: in vivo
Protocol: A standard experimental animal model of colitis induced by intracolonic administration of 2,4,6-trinitrobenzene sulfonic acid (TNBS) to mice is used in the following example. A detailed description of this model has been published (Santucci et al. (2003) Gastroenterology 124:1381-94) and is incorporated herein by reference. Briefly, 6-8 week old Balb/c mice were given TNBS intracolonically at a dose of 1.5 mg in 0.1 mL of 30% ethanol. The mice were randomized to the various treatment groups (n=6 per group). Beginning one hour later and continuing every 12 h for 5 days, the mice were treated orally with vehicle (1% carboxymethylcellulose (CMC)), 5-ASA (mesalamine) (25, 50 or 75 mg/kg) or with equimolar doses of 2-hydroxy-5-amino-benzoic acid 4-(thioxo-5H-[1,2]dithiol-3-yl)-phenyl ester hydrochloride (Compound XXXV) (130 mg/kg), or with […] (100 mg/kg), 50% (66 mg/kg) and 25% (33 mg/kg) of that dose. The mice were evaluated (blindly) on the final day of the study for the presence of diarrhea and fecal occult blood, and their body weights were measured. […] After sacrifice, a sample of the colon was excised for measurement of myeloperoxidase (MPO) activity, as a marker of granulocyte infiltration. All results were compared to those obtained with healthy mice as well.

## Nc1ccc(O)c(C(=O)Oc2ccc(-c3cc(=S)ss3)cc2)c1 [Compound XXXV, 5-Amino-2-hydroxy-benzoic acid 4-(5-thioxo-5H-[1,2]dithiol-3-yl)-phenyl ester]
Compound XXXV 130 mg/kg vs mesalamine 50 mg/kg, ADT-OH 80 mg/kg and their mixture, FIG. 3
  Disease Activity Index: almost twice as effective as either mesalamine alone, ADT-OH alone or a mixture of mesalamine and ADT-OH
Dose equimolar to 50 mg/kg mesalamine
  Every endpoint of FIGS. 7-14 (MPO activity, disease activity score, colonic mRNA expression): superior to mesalamine in every endpoint
dose-ranging, oral every 12 h for 5 days, equimolar doses of 50 mg/kg and 75 mg/kg mesalamine, FIG. 1
  Disease activity score: superior to mesalamine in reducing the activity score
